Results reported in ChEMBL document CHEMBL3120141, “Discovery of (1R,6S)-5-[4-(1-cyclobutyl-piperidin-4-yloxy)-phenyl]-3,4-diaza-bicyclo[4.1.0]hept-4-en-2-one (R,S-4a): histamine H(3) receptor inverse agonist demonstrating potent cognitive enhancing and wake promoting activity” (Bioorg Med Chem Lett, 2014).
Converted amounts (≈) assume the structure as drawn. The source made the active and inactive calls. No cut-off for these calls is given here.

How the values were obtained:
[1] = molecular target: Cytochrome P450 2D6 (Homo sapiens, UniProt P10635); assay: Inhibition of CYP2D6 (unknown origin); assay type: ADME
[2] = Plasma protein binding in rat; assay type: ADME, cell-free; settings: read-out: PPB (converted)
[3] = tested on: Rattus norvegicus; assay: Toxicity in EEG/EMG rat model assessed as sleep rebound at 1 to 30 mg/kg, ip; assay type: organism-based; parameters: dose 1-30 mg/kg, route intraperitoneal; settings: in vivo
[4] = Oral bioavailability in monkey at 3 mg/kg; assay type: ADME, organism-based, Macaca mulatta; settings: rhesus monkey, in vivo
[5] = Volume of distribution at steady state in dog at 1 mg/kg, iv; assay type: ADME, organism-based, Canis lupus familiaris; parameters: dose 1 mg/kg, route intravenous; settings: in vivo, read-out: Vdss
[6] = tested on: Rattus norvegicus; assay: In vivo inhibition of histamine H3 receptor in ip dosed rat dipsogenia model assessed as inhibition of RAMH-induced dipsogenia; assay type: functional
[7] = tested on: Rattus norvegicus; assay: Wake promoting activity in EEG/EMG rat model assessed as cumulative wake time at 3 mg/kg, ip after 4 hrs (reference value: 86 +/- 7 mins); assay type: functional; settings: route intraperitoneal
[8] = molecular target: Cytochrome P450 3A4 (Homo sapiens, UniProt P08684); assay: Inhibition of CYP3A4 (unknown origin); assay type: ADME
[9] = Terminal half life in monkey at 1 mg/kg, iv; assay type: ADME, organism-based, Macaca mulatta; parameters: dose 1 mg/kg, route intravenous; settings: rhesus monkey, in vivo, read-out: beta t1/2 (converted)
[10] = tested on: Rattus norvegicus; assay: Wake promoting activity in EEG/EMG rat model assessed as cumulative wake time at 10 mg/kg, ip after 4 hrs (reference value: 86 +/- 7 mins); assay type: functional; settings: route intraperitoneal
[11] = Clearance in dog at 1 mg/kg, iv; assay type: ADME, organism-based, Canis lupus familiaris; parameters: dose 1 mg/kg, route intravenous; settings: in vivo
[12] = molecular target: Histamine H1 receptor (Homo sapiens) (UniProt P35367); assay: Inhibition of human histamine H1 receptor at 10 uM
[13] = Plasma protein binding in dog; assay type: ADME, cell-free, Canis lupus familiaris; settings: read-out: PPB (converted)
[14] = Clearance in monkey at 1 mg/kg, iv; assay type: ADME, organism-based, Macaca mulatta; parameters: dose 1 mg/kg, route intravenous; settings: rhesus monkey, in vivo
[15] = Ratio of drug uptake in brain to plasma in rat at 10 mg/kg, ip after 6 hrs; assay type: ADME, organism-based; parameters: dose 10 mg/kg, route intraperitoneal; settings: read-out: BPR
[16] = Solubility of the compound in water at pH 7.4; assay type: physicochemical
[17] = tested on: Rattus norvegicus; assay: Toxicity in EEG/EMG rat model assessed as abnormal behavior at 1 to 30 mg/kg, ip; assay type: organism-based; parameters: dose 1-30 mg/kg, route intraperitoneal; settings: in vivo
[18] = tested on: Rattus norvegicus; assay: Wake promoting activity in EEG/EMG rat model assessed as cumulative wake time at 30 mg/kg, ip after 1.5 hrs relative to vehicle-treated control; assay type: functional; settings: route intraperitoneal
[19] = Half life in monkey liver microsomes; assay type: ADME, Macaca mulatta, Microsome; settings: rhesus monkey
[20] = molecular target: T1, Histamine H3 receptor (Homo sapiens, UniProt Q9Y5N1); assay: Inverse agonist activity at human histamine H3 receptor by [35S]GTPgammaS binding assay; assay type: functional
[21] = Solubility of the compound in water at pH 2; assay type: physicochemical
[22] = molecular target: Histamine H4 receptor (Homo sapiens) (UniProt Q9H3N8); assay: Inhibition of human histamine H4 receptor at 10 uM
[23] = molecular target: Histamine H2 receptor (Homo sapiens) (UniProt P25021); assay: Inhibition of human histamine H2 receptor at 10 uM
[24] = tested on: Rattus norvegicus; assay: Wake promoting activity in EEG/EMG rat model assessed as cumulative wake time at 10 mg/kg, ip after 1.5 hrs relative to vehicle-treated control; assay type: functional; settings: route intraperitoneal
[25] = Cmax in monkey at 3 mg/kg, po; assay type: ADME, organism-based, Macaca mulatta; parameters: dose 3 mg/kg, route oral; settings: rhesus monkey, in vivo
[26] = Apparent permeability across human Caco2 cells; assay type: ADME, cell-based; settings: Caco-2
[27] = Volume of distribution at steady state in rat at 1 mg/kg, iv; assay type: ADME, organism-based; parameters: dose 1 mg/kg, route intravenous; settings: in vivo, read-out: Vdss
[28] = Terminal half life in rat at 1 mg/kg, iv; assay type: ADME, organism-based; parameters: dose 1 mg/kg, route intravenous; settings: in vivo, read-out: beta t1/2 (converted)
[29] = molecular target: Histamine H3 receptor (Rattus norvegicus, UniProt Q9QYN8); assay: Displacement of [3H]NAMH from rat histamine H3 receptor transfected in CHO cells; assay type: cell-based
[30] = tested on: Rattus norvegicus; assay: Wake promoting activity in ip dosed EEG/EMG rat model assessed as cumulative wake time after 4 hrs; assay type: functional, organism-based
[31] = tested on: Rattus norvegicus; assay: Toxicity in EEG/EMG rat model assessed as EEG activity at 1 to 30 mg/kg, ip; assay type: organism-based; parameters: dose 1-30 mg/kg, route intraperitoneal; settings: in vivo
[32] = Oral bioavailability in rat at 5 mg/kg; assay type: ADME, organism-based; settings: in vivo
[33] = AUC in dog at 3 mg/kg, po; assay type: ADME, organism-based, Canis lupus familiaris; parameters: dose 3 mg/kg, route oral; settings: plasma
[34] = tested on: Rattus norvegicus; assay: Wake promoting activity in EEG/EMG rat model assessed as cumulative wake time at 1 mg/kg, ip after 4 hrs (reference value: 86 +/- 7 mins); assay type: functional; settings: route intraperitoneal
[35] = Volume of distribution at steady state in monkey at 1 mg/kg, iv; assay type: ADME, organism-based, Macaca mulatta; parameters: dose 1 mg/kg, route intravenous; settings: rhesus monkey, in vivo, read-out: Vdss
[36] = Cmax in dog at 3 mg/kg, po; assay type: ADME, organism-based, Canis lupus familiaris; parameters: dose 3 mg/kg, route oral; settings: in vivo
[37] = tested on: Rattus norvegicus; assay: Wake promoting activity in EEG/EMG rat model assessed as cumulative wake time at 30 mg/kg, ip after 4 hrs (reference value: 86 +/- 7 mins); assay type: functional; settings: route intraperitoneal
[38] = Half life in mouse liver microsomes; assay type: ADME, Microsome
[39] = Ratio of drug uptake in brain to plasma in dog at 5 mg/kg, po after 6 hrs; assay type: ADME, organism-based, Canis lupus familiaris; parameters: dose 5 mg/kg, route oral; settings: read-out: BPR
[40] = Half life in rat liver microsomes; assay type: ADME
[41] = Terminal half life in dog at 1 mg/kg, iv; assay type: ADME, organism-based, Canis lupus familiaris; parameters: dose 1 mg/kg, route intravenous; settings: in vivo, read-out: beta t1/2 (converted)
[42] = Clearance in rat at 1 mg/kg, iv; assay type: ADME, organism-based; parameters: dose 1 mg/kg, route intravenous; settings: in vivo
[43] = Half life in dog liver microsomes; assay type: ADME, Canis lupus familiaris
[44] = Plasma protein binding in human; assay type: ADME, cell-free; settings: read-out: PPB (converted)
[45] = Half life in human liver microsomes; assay type: ADME
[46] = Oral bioavailability in dog at 3 mg/kg; assay type: ADME, organism-based, Canis lupus familiaris; settings: in vivo
[47] = molecular target: Cytochrome P450 2C9 (Homo sapiens, UniProt P11712); assay: Inhibition of CYP2C9 (unknown origin); assay type: ADME
[48] = molecular target: T2, Cytochrome P450 1A2 (Homo sapiens, UniProt P05177); assay: Inhibition of CYP1A2 (unknown origin); assay type: ADME
T2 sequence (P05177 whole entry): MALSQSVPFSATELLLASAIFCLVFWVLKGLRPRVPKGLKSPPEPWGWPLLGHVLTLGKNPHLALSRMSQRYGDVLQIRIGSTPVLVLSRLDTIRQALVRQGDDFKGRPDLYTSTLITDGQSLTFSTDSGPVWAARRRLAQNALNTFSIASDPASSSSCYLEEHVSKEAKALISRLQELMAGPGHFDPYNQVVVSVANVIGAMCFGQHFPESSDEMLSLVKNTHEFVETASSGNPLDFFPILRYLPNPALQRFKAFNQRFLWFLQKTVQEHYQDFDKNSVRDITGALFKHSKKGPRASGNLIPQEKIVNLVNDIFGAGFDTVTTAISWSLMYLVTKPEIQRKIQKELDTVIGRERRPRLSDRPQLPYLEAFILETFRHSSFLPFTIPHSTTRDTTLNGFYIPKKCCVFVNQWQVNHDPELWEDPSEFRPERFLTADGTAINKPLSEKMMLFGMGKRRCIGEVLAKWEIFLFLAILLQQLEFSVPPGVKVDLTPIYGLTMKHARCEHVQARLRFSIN

[49] = AUC in rat at 5 mg/kg, po; assay type: ADME, organism-based, Plasma; parameters: dose 5 mg/kg, route oral; settings: plasma
[50] = Cmax in rat at 5 mg/kg, po; assay type: ADME, organism-based; parameters: dose 5 mg/kg, route oral; settings: in vivo
[51] = molecular target: Voltage-gated inwardly rectifying potassium channel KCNH2 (Homo sapiens, UniProt Q12809); assay: Inhibition of human ERG channel by patch clamp technique
[52] = tested on: Rattus norvegicus; assay: Wake promoting activity in EEG/EMG rat model assessed as cumulative wake time at 30 mg/kg, ip after 7.5 to 18 hrs relative to vehicle-treated control; assay type: functional; settings: route intraperitoneal
[53] = AUC in monkey at 3 mg/kg, po; assay type: ADME, organism-based, Macaca mulatta; parameters: dose 3 mg/kg, route oral; settings: rhesus monkey, plasma
[54] = molecular target: Cytochrome P450 2C19 (Homo sapiens, UniProt P33261); assay: Inhibition of CYP2C19 (unknown origin); assay type: ADME
[55] = molecular target: T1, Histamine H3 receptor; assay: Displacement of [3H]NAMH from human histamine H3 receptor transfected in CHO cells; assay type: cell-based
[56] = tested on: Rattus norvegicus; assay: Enhancement of short term memory in rat social recognition memory model assessed as decrease in investigation ratio at 0.03 to 0.3 mg/kg, po; assay type: functional, organism-based
[57] = organism: Homo sapiens; assay: Selectivity ratio for human histamine H3 receptor over human histamine H1 receptor
[58] = organism: Homo sapiens; assay: Selectivity ratio for human histamine H3 receptor over human histamine H4 receptor
[59] = organism: Homo sapiens; assay: Selectivity ratio for human histamine H3 receptor over human histamine H2 receptor

T1 sequence (Q9Y5N1 whole entry): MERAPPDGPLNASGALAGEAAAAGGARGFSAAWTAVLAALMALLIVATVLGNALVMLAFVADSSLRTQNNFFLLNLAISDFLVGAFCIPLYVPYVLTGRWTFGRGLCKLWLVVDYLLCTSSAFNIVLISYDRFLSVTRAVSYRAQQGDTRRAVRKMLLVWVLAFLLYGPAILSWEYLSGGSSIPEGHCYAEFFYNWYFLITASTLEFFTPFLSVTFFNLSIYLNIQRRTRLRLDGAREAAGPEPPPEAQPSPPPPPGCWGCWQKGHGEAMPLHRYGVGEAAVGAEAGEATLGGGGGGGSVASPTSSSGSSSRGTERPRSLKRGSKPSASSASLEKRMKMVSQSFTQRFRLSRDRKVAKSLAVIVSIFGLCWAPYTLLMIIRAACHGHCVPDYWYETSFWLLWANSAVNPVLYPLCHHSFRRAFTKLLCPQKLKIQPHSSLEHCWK
Sequence of Histamine H3 receptor (Rattus norvegicus, UniProt Q9QYN8) (Q9QYN8 whole entry): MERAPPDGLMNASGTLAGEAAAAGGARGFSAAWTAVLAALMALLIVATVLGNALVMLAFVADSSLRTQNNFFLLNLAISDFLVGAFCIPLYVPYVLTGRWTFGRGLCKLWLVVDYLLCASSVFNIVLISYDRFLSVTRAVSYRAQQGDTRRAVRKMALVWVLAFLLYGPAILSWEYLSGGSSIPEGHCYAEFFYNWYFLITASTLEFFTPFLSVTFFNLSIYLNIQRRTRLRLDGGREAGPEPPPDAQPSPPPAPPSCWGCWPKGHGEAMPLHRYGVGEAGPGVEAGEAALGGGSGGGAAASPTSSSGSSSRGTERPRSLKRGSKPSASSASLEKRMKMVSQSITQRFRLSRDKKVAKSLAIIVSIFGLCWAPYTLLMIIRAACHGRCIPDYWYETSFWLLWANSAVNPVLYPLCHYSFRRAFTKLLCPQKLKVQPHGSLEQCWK
Sequence of Cytochrome P450 2C19 (P33261 whole entry): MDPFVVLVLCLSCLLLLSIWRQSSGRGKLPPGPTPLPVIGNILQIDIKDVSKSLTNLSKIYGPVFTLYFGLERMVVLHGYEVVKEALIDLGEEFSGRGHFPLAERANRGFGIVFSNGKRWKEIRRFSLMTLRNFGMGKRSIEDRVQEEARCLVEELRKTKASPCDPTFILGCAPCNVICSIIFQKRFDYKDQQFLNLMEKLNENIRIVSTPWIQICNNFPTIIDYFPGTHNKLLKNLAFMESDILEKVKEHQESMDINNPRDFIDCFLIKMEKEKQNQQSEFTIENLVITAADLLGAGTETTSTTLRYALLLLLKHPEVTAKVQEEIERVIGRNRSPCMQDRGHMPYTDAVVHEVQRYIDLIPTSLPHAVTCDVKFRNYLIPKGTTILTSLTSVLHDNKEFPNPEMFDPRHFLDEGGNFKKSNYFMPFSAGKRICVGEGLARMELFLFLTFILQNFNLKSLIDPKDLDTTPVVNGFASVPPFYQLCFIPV
Sequence of Histamine H2 receptor (Homo sapiens) (P25021 whole entry): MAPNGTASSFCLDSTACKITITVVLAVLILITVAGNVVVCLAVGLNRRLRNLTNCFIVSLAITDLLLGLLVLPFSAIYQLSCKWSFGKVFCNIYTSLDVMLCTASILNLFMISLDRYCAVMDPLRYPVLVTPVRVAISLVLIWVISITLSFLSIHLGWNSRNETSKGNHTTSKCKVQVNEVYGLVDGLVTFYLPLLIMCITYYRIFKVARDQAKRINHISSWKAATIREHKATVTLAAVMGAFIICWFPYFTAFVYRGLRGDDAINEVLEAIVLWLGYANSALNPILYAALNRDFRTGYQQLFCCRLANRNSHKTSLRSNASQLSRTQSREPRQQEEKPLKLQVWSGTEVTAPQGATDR
Sequence of Cytochrome P450 2C9 (P11712 whole entry): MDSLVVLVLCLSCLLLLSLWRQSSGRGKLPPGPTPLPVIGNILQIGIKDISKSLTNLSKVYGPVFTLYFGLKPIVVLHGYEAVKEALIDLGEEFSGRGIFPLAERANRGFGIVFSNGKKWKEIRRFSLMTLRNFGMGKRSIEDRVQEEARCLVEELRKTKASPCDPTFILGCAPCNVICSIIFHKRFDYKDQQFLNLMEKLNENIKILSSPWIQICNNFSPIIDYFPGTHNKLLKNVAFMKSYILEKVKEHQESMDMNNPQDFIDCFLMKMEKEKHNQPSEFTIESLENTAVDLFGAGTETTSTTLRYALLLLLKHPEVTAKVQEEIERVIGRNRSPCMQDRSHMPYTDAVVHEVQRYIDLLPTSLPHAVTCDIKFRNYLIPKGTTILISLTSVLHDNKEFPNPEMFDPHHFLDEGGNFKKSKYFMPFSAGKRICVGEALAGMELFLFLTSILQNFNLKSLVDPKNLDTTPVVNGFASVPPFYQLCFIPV
Sequence of Cytochrome P450 2D6 (P10635 whole entry): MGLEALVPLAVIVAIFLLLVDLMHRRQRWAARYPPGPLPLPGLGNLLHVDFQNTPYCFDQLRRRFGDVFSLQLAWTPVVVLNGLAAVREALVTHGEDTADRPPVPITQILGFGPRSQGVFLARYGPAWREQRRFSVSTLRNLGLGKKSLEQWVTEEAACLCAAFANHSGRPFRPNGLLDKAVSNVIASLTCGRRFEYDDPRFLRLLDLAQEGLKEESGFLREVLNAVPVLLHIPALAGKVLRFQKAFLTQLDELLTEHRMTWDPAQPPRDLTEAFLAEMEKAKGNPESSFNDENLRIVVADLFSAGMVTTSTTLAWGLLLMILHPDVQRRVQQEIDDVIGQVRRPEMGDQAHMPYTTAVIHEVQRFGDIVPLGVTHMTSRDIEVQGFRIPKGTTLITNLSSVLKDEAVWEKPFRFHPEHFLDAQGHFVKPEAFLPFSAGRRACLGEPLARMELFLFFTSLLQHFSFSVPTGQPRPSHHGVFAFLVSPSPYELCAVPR
Sequence of Histamine H1 receptor (Homo sapiens) (P35367 whole entry): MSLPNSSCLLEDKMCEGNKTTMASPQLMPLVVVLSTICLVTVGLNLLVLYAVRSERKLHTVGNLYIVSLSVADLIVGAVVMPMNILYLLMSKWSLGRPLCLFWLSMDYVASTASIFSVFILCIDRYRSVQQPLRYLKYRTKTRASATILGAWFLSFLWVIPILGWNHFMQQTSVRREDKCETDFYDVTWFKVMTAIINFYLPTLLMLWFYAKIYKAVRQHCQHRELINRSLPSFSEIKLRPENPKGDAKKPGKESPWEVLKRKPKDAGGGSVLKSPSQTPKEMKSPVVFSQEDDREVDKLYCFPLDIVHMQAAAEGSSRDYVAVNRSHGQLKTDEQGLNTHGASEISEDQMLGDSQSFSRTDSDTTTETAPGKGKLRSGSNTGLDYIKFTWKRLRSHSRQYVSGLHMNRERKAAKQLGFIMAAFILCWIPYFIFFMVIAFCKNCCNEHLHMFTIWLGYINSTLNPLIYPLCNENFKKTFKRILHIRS
Sequence of Histamine H4 receptor (Homo sapiens) (Q9H3N8 whole entry): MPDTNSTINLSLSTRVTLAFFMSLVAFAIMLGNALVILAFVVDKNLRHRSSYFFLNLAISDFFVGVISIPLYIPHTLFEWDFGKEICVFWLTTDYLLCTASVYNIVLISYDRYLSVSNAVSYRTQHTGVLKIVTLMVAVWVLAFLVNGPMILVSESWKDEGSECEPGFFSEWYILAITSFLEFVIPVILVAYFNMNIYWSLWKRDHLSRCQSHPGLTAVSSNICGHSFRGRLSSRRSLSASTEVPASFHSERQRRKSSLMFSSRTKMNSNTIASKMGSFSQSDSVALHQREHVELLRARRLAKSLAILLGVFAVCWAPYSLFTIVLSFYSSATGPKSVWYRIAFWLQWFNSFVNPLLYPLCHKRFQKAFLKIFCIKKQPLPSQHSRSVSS
Sequence of Voltage-gated inwardly rectifying potassium channel KCNH2 (Q12809 whole entry): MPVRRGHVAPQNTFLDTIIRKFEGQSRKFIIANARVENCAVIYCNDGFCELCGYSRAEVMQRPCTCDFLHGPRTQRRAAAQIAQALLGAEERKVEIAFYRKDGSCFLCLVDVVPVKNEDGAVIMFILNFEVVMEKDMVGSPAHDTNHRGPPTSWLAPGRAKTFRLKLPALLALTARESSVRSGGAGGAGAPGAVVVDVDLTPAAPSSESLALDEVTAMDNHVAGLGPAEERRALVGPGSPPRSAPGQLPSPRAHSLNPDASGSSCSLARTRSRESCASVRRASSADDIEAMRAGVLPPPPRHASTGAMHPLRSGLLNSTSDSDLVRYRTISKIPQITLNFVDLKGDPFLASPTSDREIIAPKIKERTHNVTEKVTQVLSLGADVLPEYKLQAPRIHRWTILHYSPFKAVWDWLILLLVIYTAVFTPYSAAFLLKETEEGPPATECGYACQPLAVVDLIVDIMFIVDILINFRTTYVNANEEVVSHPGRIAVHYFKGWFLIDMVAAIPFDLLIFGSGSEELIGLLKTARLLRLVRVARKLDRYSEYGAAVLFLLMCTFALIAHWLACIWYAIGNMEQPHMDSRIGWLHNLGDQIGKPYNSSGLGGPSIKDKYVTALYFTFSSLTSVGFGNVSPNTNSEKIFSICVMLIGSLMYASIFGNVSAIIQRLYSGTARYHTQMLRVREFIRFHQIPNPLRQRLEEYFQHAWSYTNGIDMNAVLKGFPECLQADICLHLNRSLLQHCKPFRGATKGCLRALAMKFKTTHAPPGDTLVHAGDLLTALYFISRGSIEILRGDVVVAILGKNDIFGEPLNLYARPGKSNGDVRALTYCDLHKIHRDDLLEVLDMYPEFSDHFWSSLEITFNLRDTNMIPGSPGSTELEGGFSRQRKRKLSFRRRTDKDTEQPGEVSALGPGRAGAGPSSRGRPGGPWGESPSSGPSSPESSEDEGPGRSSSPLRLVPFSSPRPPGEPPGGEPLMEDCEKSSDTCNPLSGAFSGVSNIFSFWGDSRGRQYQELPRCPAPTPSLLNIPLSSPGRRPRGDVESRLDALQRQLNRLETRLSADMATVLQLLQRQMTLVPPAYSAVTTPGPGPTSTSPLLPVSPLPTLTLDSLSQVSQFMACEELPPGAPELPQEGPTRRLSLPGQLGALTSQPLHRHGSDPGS

O=C1NN=C(c2ccc(OC3CCN(C4CCC4)CC3)cc2)[C@H]2C[C@@H]12
IC50 [1]: > 30 µM | fraction unbound [2]: 0.23 | Activity [3]: Non-toxic | bioavailability [4]: 114% | Vd [5]: 4.1 L/kg | ED50 [6]: 0.14 mg/kg | inhibition [6]: Dose-dependent effect | Time [7]: 129 min | IC50 [8]: > 30 µM | half-life [9]: 8.6 h | Time [10]: 189 min | clearance [11]: 0.96 L/h/kg | inhibition [12]: < 10% | fraction unbound [13]: 0.23 | clearance [14]: 0.48 L/h/kg | Kp at 6 h [15]: 3.6 | solubility [16]: 0.8 mg/mL (≈ 2360 µM) | Activity [17]: Non-toxic | Activity [18]: 90% | half-life [19]: > 0.667 h | EC50 [20]: 0.0004 µM | solubility [21]: > 1 mg/mL | inhibition [22]: < 10% | inhibition [23]: < 10% | Activity [24]: >90% | Cmax [25]: 0.645 µg/mL | Papp [26]: 164 nm/s | Vd [27]: 3.7 L/kg | half-life [28]: 2.6 h | Ki [29]: 0.0073 µM | Activity [30]: Dose-dependent effect | Activity [31]: Non-toxic | bioavailability [32]: 92% | AUC [33]: 2.96 µg·h/mL | Time [34]: 121 min | Vd [35]: 6 L/kg | Cmax [36]: 0.502 µg/mL | Time [37]: 217 min | half-life [38]: > 0.667 h | Kp at 6 h [39]: 5.1 | half-life [40]: > 0.667 h | half-life [41]: 3 h | clearance [42]: 1.02 L/h/kg | half-life [43]: > 0.667 h | fraction unbound [44]: 0.23 | half-life [45]: > 0.667 h | bioavailability [46]: 94% | IC50 [47]: > 30 µM | IC50 [48]: > 30 µM | AUC [49]: 8.32 µg·h/mL | Cmax [50]: 0.888 µg/mL | IC50 [51]: 14 µM | Time [52]: 174 min | AUC [53]: 7.19 µg·h/mL | IC50 [54]: > 30 µM | Ki [55]: 0.0038 µM | Activity [56]: Active

CCN1CCC(Oc2ccc(C3=NNC(=O)C4CC34)cc2)CC1 (racemic)
Ki [29]: 0.228 µM | Ki [55]: 0.173 µM

CC(C)N1CCC(Oc2ccc(C3=NN(C)C(=O)C4CC34)cc2)CC1 (racemic)
Selectivity ratio [57]: > 1000 | Selectivity ratio [58]: > 1000 | Ki [29]: 0.017 µM | Ki [55]: 0.004 µM | Selectivity ratio [59]: > 1000
